The text below walks through data of patent publication US8394786B2, “Quinazoline derivatives” (Janssen Pharmaceutica N.V., priority 2003, dated 2013).

Assay [1] addresses EGFR (Homo sapiens, UniProt P00533). Kind of assay: In vitro inhibition of EGFR, Flash Plate or glass-fiber filter technology (C2). Format: biochemical. More on the design: 0.5 μg EGFR-kinase domain/well. The conditions noted are these: EGFR-kinase domain, 5.0 μM unlabeled ATP, read-out: Kinase activity.(C2): pIC50 (converted). As to the method: The in vitro inhibition of EGFR was assessed using either the Flash Plate technology or the glass-fiber filter technology as described by Davies, S. P. et al., Biochem J. (2000), 351; p. 95-105. The Flash Plate technology is generally described by B. A. Brown et al. in High Throughput Screening (1997), p. 317-328. Editor(s): Devlin, John P. Publisher: Dekker, New York, N.Y.
In the Flash Plate EGFR kinase reaction assay, a kinase substrate consisting of biotinylated poly(L-glutamic acid-L-tyrosine) (poly(GT)biotin), is incubated with the aforementioned protein in the presence of (^33P) radiolabeled ATP. (^33P) phosphorylation of the substrate is subsequently measured as light energy emitted using a streptavidin-coated Flash Plate (PerkinElmer Life Sciences) by trapping and quantifying the binding of the biotin tagged and radiolabeled substrate.
The EGFR kinase reaction is performed at 30° C. for 60 minutes in a 96-well microtiter FlashPlate (PerkinElmer Life Sciences). For each of the tested compounds a full dose response 1·10^−6M to 1·10^−10M has been performed. IRESSA° and Tarceva™ (erlotinib) were used as reference compounds. The 100 μl reaction volume contains 54.5 mM TrisHCl pH 8.0, 10 mM MgCl2, 100 μM Na3VO4, 5.0 μM unlabeled ATP, 1 mM DTT, 0.009% BSA, 0.8 μCi AT^33P, 0.35 μg/well poly(GT)biotin and 0.5 μg EGFR-kinase domain/well.
The reaction is stopped by aspirating the reaction mixture and washing the plate 3× with 200 μl wash/stop buffer (PBS+100 mM EDTA). After the final wash step 200 μl of wash/stop buffer was added to each well and the amount of phosphorylated (^33P) Poly(GT)biotin determined by counting (30 sec/well) in a microtiterplate scintillation counter.
In the glass-fiber filter technology EGFR kinase reaction assay, a kinase substrate consisting of poly(L-glutamic acid-L-tyrosine) (poly(GT)), is incubated with the aforementioned protein in the presence of (^33P) radiolabeled ATP. (^33P) Phosporylation of the substrate is subsequently measured as radioactivity bound on a glassfiber-filter.
The EGFR kinase reaction is performed at 25° C. for 10 minutes in a 96-well microtiterplate. For each of the tested compounds a full dose response 1·10^−6M to 1·10^−10M has been performed. IRESSA° and Tarceva™ (erlotinib) were used as reference compounds. The 25 μl reaction volume contains 60 mM TrisHCl pH 7.5, 3 mM MgCl2, 3 mM Mn Cl2, 3 μM Na3VO4, 50 μg/ml PEG20000, 5.0 μM unlabeled ATP, 1 mM DTT, 0.1 μCi AT^33P, 62.5 ng/well poly(GT) and 0.5 μg EGFR-kinase domain/well.
The reaction is stopped by adding 5 μl of a 3% phosphoric acid solution. 10 μl of the reaction mixture is then spotted onto a Filtermat A filter (Wallac) and washed 3 times for 5 min. in 75 mM phosphoric acid and 1 time for 5 min. in methanol prior to drying and quantification on the Typhoon (Amersham) using a LE phosphorage storage screen.

Assay [2] concerns SKOV3 cells. Kind of assay: Serum starved proliferation assay on the ovarian carcinoma SKOV3 cells (C3). The format is cell-based. The conditions noted are these: EGF stimulated (100 ng/ml, 72 hours, serum free) or 72 hours with compounds, MTT cell viability assay; for IC50: Homo sapiens, SK-OV-3, 72 h, read-out: SKOV3 cell (C3): pIC50 (converted). As to the method:
The ovarian carcinoma cell line (SKOV3) was used in an epidermal growth factor stimulated cell proliferation assay, to assess the inhibitory effect of the compounds on EGF in whole cells.
In a first step the SKOV3 cells were incubated for 24 hours in the presence of 10% FCS serum. In the second step the cells were incubated with the compounds to be tested in a serum free condition (37° C. and 5% (v/v) CO2) and subsequently stimulated for 72 hours with EGF at a final concentration of 100 ng/ml. The effect of the compounds on the EGF stimulation was finally assessed in a standard MTT cell viability assay.
Alternatively, the SKOV3 cells were incubated for 24 hours in the presence of 10% FCS serum. In the second step the cells were incubated for 72 hours with the compounds to be tested and the effect of the compounds on cell proliferation was finally assessed in a standard MTT cell viability assay.
For orientation: Tetrazolium assays rely on reduction of a dye to a coloured formazan, in cell work by metabolically active cells.

Chain of EGFR (P00533 712-979 limits assumed): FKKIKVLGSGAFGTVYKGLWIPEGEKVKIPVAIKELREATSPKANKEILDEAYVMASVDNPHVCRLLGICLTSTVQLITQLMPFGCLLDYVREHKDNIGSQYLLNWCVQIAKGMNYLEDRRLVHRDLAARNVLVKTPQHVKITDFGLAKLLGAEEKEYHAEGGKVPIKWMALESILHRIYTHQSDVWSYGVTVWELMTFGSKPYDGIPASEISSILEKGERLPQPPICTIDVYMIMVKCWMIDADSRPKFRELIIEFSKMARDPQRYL

Consider `COc1cc2ncnc3c2cc1OCCCCNC(=O)C1CCCN1Cc1cc(F)c(Cl)cc1N3` (stereo not shown) [Compound 102, 4,6-ethanediylidenepyrimido[4,5-b]pyrrolo[2,1-m][6,1,11,14]benzoxatriazacycloheptadecin-13(8H)-one, 21-chloro-20-fluoro-9,10,11,12,13a,14,15,16,18,23-decahydro-24-methoxy-], for which the IC50 was 200 nM in assay [1] and 50.1 nM in assay [2].
In the case of `COc1cc2ncnc3c2cc1OCCNC(=S)C1CCCN1Cc1cc(F)c(Cl)cc1N3` (stereo not shown) [Compound 104, 4,6-ethanediylidenepyrimido[4,5-b]pyrrolo[2,1-k][6,1,9,12]benzoxatriazacyclopentadecine-11(8H)-thione, 19-chloro-18-fluoro-9,10,11a,12,13,14,16,21-octahydro-22-methoxy-], the IC50 was 1000 nM in assay [1] and 316 nM in assay [2].
In the case of `COc1cc2ncnc3c2cc1OCCCC=CCCCC(=O)NCc1ccc(Cl)cc1N3` [Compound 105, 4,6-ethanediylidenepyrimido[4,5-b][6,1,16]benzoxadiazacyclononadecin-16(17H)-one, 21-chloro-8,9,10,13,14,15,18,23-octahydro-24-methoxy-], in assay [1], the IC50 is 158 nM. Further, the “SKOV3 cell (C3): pIC50” value in assay [2] stood at 7.6.
As for `COc1cc2ncnc3c2cc1OCCCC=CCCCC(=O)NCc1ccc(Cl)cc1N3` [Compound 106, 4,6-ethanediylidenepyrimido[4,5-b][6,1,16]benzoxadiazacyclononadecin-16(17H)-one, 21-chloro-8,9,10,13,14,15,18,23-octahydro-24-methoxy-], the IC50 in assay [1] was 100 nM. Besides, the “SKOV3 cell (C3): pIC50” value in assay [2] amounted to 7.2.
In the case of `COc1cc2ncnc3c2cc1OCCC=CCCCC(=O)NCc1ccc(Cl)cc1N3` [Compound 108, 4,6-ethanediylidene-8H-pyrimido[4,5-b][6,1,15]benzoxadiazacyclooctadecin-15(16H)-one, 20-chloro-9,12,13,14,17,22-hexahydro-23-methoxy-], the IC50 in assay [1] is 398 nM; in assay [2], 158 nM.
On to `COc1cc2ncnc3c2cc1OCCCC=CCC(NC(=O)OC(C)(C)C)C(=O)NCc1ccc(Cl)cc1N3` (stereo not shown) [Compound 109, carbamic acid, (20-chloro-9,10,13,14,15,16,17,22-octahydro-23-methoxy-15-oxo-4,6-ethanediylidene-8H-pyrimido[4,5-b][6,1,15]benzoxadiazacyclooctadecin-14-yl)-, 1,1-dimethylethyl ester], for which, in assay [1], the IC50 was 2000 nM. The “SKOV3 cell (C3): pIC50” value in assay [2] was found to be 6.5.
With `COc1cc2ncnc3c2cc1OCCCCCCC(NC(=O)OC(C)(C)C)C(=O)NCc1ccc(Cl)cc1N3` (stereo not shown) [Compound 111, carbamic acid, (20-chloro-9,10,11,12,13,14,15,16,17,22-decahydro-23-methoxy-15-oxo-4,6-ethanediylidene-8H-pyrimido[4,5-b][6,1,15]benzoxadiazacyclooctadecin-14-yl)-, 1,1-dimethylethyl ester], the IC50 in assay [1] was 1580 nM; in assay [2], 10000 nM.
On to `COc1cc2ncnc3c2cc1OCCCCCNCCN(C)Cc1ccc(Cl)cc1N3` [Compound 117, 4,6-ethanediylidene-8H-pyrimido[4,5-b][6,1,12,15]benzoxatriazacyclooctadecine, 20-chloro-9,10,11,12,13,14,15,16,17,22-decahydro-23-methoxy-16-methyl-], for which the IC50 was 200 nM in assay [1] and 3980 nM in assay [2].
In the case of `COc1cc2ncnc3c2cc1OCC(=O)NC(C)C(=O)NCCc1ccc(Cl)cc1N3` (stereo not shown) [Compound 119, 4,6-ethanediylidene-8H-pyrimido[4,5-b][6,1,9,12]benzoxatriazacyclohexadecine-9,12-dione, 18-chloro-10,11,13,14,15,20-hexahydro-21-methoxy-11-methyl-], the IC50 was 1000 nM in assay [1] and 1580 nM in assay [2].
As to `COc1cc2ncnc3c2cc1OCC(=O)NC(C)C(=O)NCc1ccc(Cl)cc1N3` (stereo not shown) [Compound 120, 4,6-ethanediylidenepyrimido[4,5-b][6,1,9,12]benzoxatriazacyclopentadecine-9,12(8H,13H)-dione, 17-chloro-10,11,14,19-tetrahydro-20-methoxy-11-methyl-], the IC50 in assay [1] was 2000 nM; in assay [2], 1000 nM.
Turning to `COc1cc2ncnc3c2cc1OCC(=O)NC(C(C)C)C(=O)NCc1ccc(Cl)cc1N3` (stereo not shown) [Compound 121, 4,6-ethanediylidenepyrimido[4,5-b][6,1,9,12]benzoxatriazacyclopentadecine-9,12(8H,13H)-dione, 17-chloro-10,11,14,19-tetrahydro-20-methoxy-11-(1-methylethyl)-], the results for the IC50 in assay [1] and in assay [2] were 2510 nM and 10000 nM, respectively.
On to `COc1cc2ncnc3c2cc1OCC(=O)NC(Cc1ccccc1)C(=O)NCc1ccc(Cl)cc1N3` (stereo not shown) [Compound 122, 4,6-ethanediylidenepyrimido[4,5-b][6,1,9,12]benzoxatriazacyclopentadecine-9,12(8H,13H)-dione, 17-chloro-10,11,14,19-tetrahydro-20-methoxy-11-(phenylmethyl)-], for which the IC50 in assay [1] was 398 nM; in assay [2] it was 10000 nM.
For `COc1cc2ncnc3c2cc1OCC(=O)NC(C)C(=O)NCc1ccccc1N3` (stereo not shown) [Compound 123, 4,6-ethanediylidenepyrimido[4,5-b][6,1,9,12]benzoxatriazacyclopentadecine-9,12(8H,13H)-dione, 10,11,14,19-tetrahydro-20-methoxy-11-methyl-], the IC50 in assay [1] was 6310 nM; in assay [2] it was 10000 nM.
As for `COc1cc2ncnc3c2cc1OCC(=O)N1CCCC1C(=O)NCc1ccccc1N3` (stereo not shown) [Compound 125, 9,11-ethanediylidenepyrimido[4,5-b]pyrrolo[1,2-i][6,1,9,12]benzoxatriazacyclopentadecine-14,19(5H,13H)-dione, 16,17,18,18a,20,21-hexahydro-22-methoxy-], the IC50 in assay [1] was 7940 nM; in assay [2], 10000 nM.
Turning to `COc1cc2ncnc3c2cc1OCC(=O)N1CCCC1C(=O)NCc1ccc(Cl)cc1N3` (stereo not shown) [Compound 126, 9,11-ethanediylidenepyrimido[4,5-b]pyrrolo[1,2-i][6,1,9,12]benzoxatriazacyclopentadecine-14,19(5H,13H)-dione, 3-chloro-16,17,18,18a,20,21-hexahydro-22-methoxy-], the IC50 in assay [1] is 2000 nM; in assay [2], 2510 nM.
`COc1cc2ncnc3c2cc1OCC(=O)NC(C(C)O)C(=O)NCc1ccc(Cl)cc1N3` (stereo not shown) [Compound 127, 4,6-ethanediylidenepyrimido[4,5-b][6,1,9,12]benzoxatriazacyclopentadecine-9,12(8H,13H)-dione, 17-chloro-10,11,14,19-tetrahydro-11-(1-hydroxyethyl)-20-methoxy-]: the figures for the IC50 in assay [1] and in assay [2] were 251 nM and 1580 nM, respectively.
In the same order, the values of `CCC(C)C1NC(=O)CCCOc2cc3c(ncnc3cc2OC)Nc2cc(Cl)ccc2CNC1=O` (stereo not shown) [Compound 128, 4,6-ethanediylidenepyrimido[4,5-b][6,1,11,14]benzoxatriazacycloheptadecine-11,14(8H,15H)-dione, 19-chloro-9,10,12,13,16,21-hexahydro-22-methoxy-13-(1-methylpropyl)-] are 10 nM and 200 nM.
